Residues, ends and D or L forms follow the SMILES beside them. *: point of attachment. Cbz = O=C(OCc1ccccc1)*; Boc = CC(C)(C)OC(=O)*; OBn = c1ccc(CO*)cc1

Broadly, the melting point is the temperature of the solid-liquid transition. `CS(=O)(=O)c1ccc(-c2oc(CCC(=O)O)nc2-c2ccc(F)cc2)cc1`: the melting point fell in the range of 197 to 198 °C. In the case of `CCOC(=O)C1Oc2cc(C(=O)c3ccnn3C)c(Cl)c(Cl)c2O1` (stereo not drawn) it was 124 to 126 °C.

The compound `CC(Oc1cccc(Cl)c1)c1ccnc2ncnn12` (stereo not drawn) registered a melting point of 124 to 126 °C. `N#Cc1cc(C(=O)NN2CCOCC2)ccc1OCC(=O)Nc1ccc(Cl)cn1`: the melting point lay within 165 to 167 °C. To `COc1cccc2sc(NC(=O)CO)nc12` belongs 193 to 195 °C; to `O=S1(=O)NC(C2CCCCC2)Nc2ccc(-c3cccc(O)c3)cc21` (stereo not drawn), 238 to 246 °C.

As to `CC1(C)OC(=O)[C@H](CC(=O)O)O1`, the melting point fell in the range of 108 to 110 °C. To `CC(=O)c1ccncc1OC1SCC(O)C(O)C1O` (stereo not drawn) belongs 163 °C; to `COC(=O)c1cc2cc(OC)c(OC)cc2nc1/N=C/N(C)C`, 166 to 168 °C. To `CCCc1cc(O)cc2nc(-c3ccc(O)cc3)oc12` belongs 110 to 112 °C; to `COc1ccc(Cl)cc1N1CCN(CCCNC(=O)c2cccc3c(=O)c(C)c(C(=O)N(C)C)oc23)CC1`, 151 to 153 °C.

Compound `O=C(NC1CN2CCC1CC2)c1cccc2oc(-c3ccc(Cl)cc3)nc12` (stereo not drawn) gave a melting point of 194 to 196 °C. The compound `Cc1cn(C)c(CO)n1` registered a melting point of 125 to 126 °C. In the case of `O=C(O)C1=Cc2c(ccc3oc4ccccc4c23)OC1C(F)(F)F` (stereo not drawn) it was 254 to 255 °C; in that of `COC(=O)C(C)(C)Cc1c(SC(C)(C)C)c2cc(OCc3ccc4ccccc4n3)ccc2n1Cc1ccc(Cl)cc1`, 166 to 167 °C; in that of `CC1(C)CCC(C)(C)c2cc(-c3cc(-c4ccc(C(=O)O)cc4)ccc3OCCCCNC3CC3)ccc21`, 160 °C. In the case of `CC(C)(C)NCP(=O)(O)O` it was 295 °C; in that of `N#CSc1cc(C(=O)O)cc([N+](=O)[O-])c1C(=O)c1ccccc1`, 184 °C.

In turn, `O=C(O)CN(CCN(CC(=O)O)C(Cc1ccccc1)C(=O)O)CC(=O)O` (stereo not drawn) displayed a melting point of 120 °C. On to `CCOC(=O)C(CCO)=C(c1cccc(OC)c1)c1cccc(OC)c1`, for which the melting point was in the range of 102 to 104 °C.

Turning to `CSCCC(NC(=O)OC(C)(C)C)C(=O)NC(C)C(=O)NC(C(=O)NC(CCCCNC(=O)OCc1ccccc1)C(=O)OCc1ccccc1)C(C)C` (stereo not drawn) (Boc-MAVK(Cbz)-OBn; configuration not given here), the melting point fell in the range of 169 to 171 °C. `N#Cc1c(Cl)c2cc(Cl)cnc2[nH]c1=O`: the melting point amounted to 247 °C.

Turning to `COc1ccn2c(C)c(CCc3ccc4nc(O)oc4c3)nc2c1`, the melting point was in the range of 255 to 257 °C.

`CC(C)(Oc1ccc(CCC(O)c2ccc(-c3ccc(C(F)(F)F)cc3)s2)c(Cl)c1Cl)C(=O)O` (stereo not drawn) showed a melting point of 54 to 56 °C. To `O=C1c2ccc(O)cc2C(=O)C1c1ccc(O)cc1` (stereo not drawn) belongs 227 to 228 °C; to `Cn1cc(C(N)=O)c(=O)c2ccc(C(F)(F)F)cc21`, 288 to 292 °C; to `CCCCCCOc1ccc(C(=O)Nc2ccc(C(=O)O)cc2)cc1C12CC3CC(CC(C3)C1)C2`, 256 to 257 °C.

For the compound `OCCCc1cnoc1-c1ccc(Cl)c(Br)c1`, the melting point was 75 to 76 °C.

The compound `O=C(/C=C/c1ccccc1)NCCC1CCN(Cc2ccccc2)CC1` yielded a melting point of 125 to 127 °C. `CC(C)(CO)Cc1ccc2cc(CC(C)(C)CO)ccc2c1`: the melting point was in the range of 162 to 165 °C. In the case of `C[C@@H]1Cc2ccsc2[C@H](c2ccccc2)N1CCNS(=O)(=O)c1ccc(N)cc1` (relative stereo) it was 184 to 186 °C; in that of `COc1ccc2c(c1)cc(-c1nc(C)no1)n2-c1ccc(CNC(=O)C2(NC(=O)OC(C)(C)C)CC2)cc1`, 212 to 214 °C; in that of `CCc1cnc2c(NC(=O)c3c(Cl)cccc3Cl)cccc2c1-n1ccnc1`, 187 to 188 °C. Consider `CCOC(=O)c1sc2ccc(Cl)cc2c1CBr`, for which the melting point fell in the range of 148 to 150 °C. In the case of `Cc1ccc(-c2cnc([C@H]3CC[C@H](C#N)CC3)nc2)cc1`, the melting point worked out at 172 °C.

As for `Cn1cc(C2=C(c3cn(CCCNc4ncccc4[N+](=O)[O-])c4ccccc34)C(=O)NC2=O)c2ccccc21`, the melting point was in the range of 218 to 220 °C. In the case of `CCC(C)(C)OC(=O)NC(C)(Cc1c[nH]c2ccccc12)C(=O)NCCCCc1ccccc1` (stereo not drawn), the melting point is 127 to 130 °C. In the case of `COC(=O)COc1cccc2c(CNC(=O)COc3ccccc3)coc12` it was 101 to 102 °C; in that of `O=C(Nc1cccnn1)N1CCN(c2nccc(-c3ccc(F)cc3F)n2)CC1`, 184 to 185 °C; in that of `CCC(O/N=C(\C(=O)O)c1csc(N)n1)C(=O)OC(C)(C)C` (stereo not drawn), 122 to 124 °C. To `O=C(Nc1cccnn1)N1CCN(c2nccc(-c3ccc(F)cc3)n2)CC1` belongs 168 to 169 °C; to `Cc1cc(Oc2ncc(C(F)(F)F)cc2Cl)nn1C(=O)N(C)C`, 102 to 104 °C; to `O=C(Nc1ccc(-n2nc(C(F)(F)F)cc2OC(F)F)cc1)c1ccncc1F`, 135 to 136 °C.

The compound `OCc1c(CN2CCN(c3ccc(Cl)cc3Cl)CC2)nc2ccc(Cl)cn12` returned a melting point of 165 to 166 °C.

`N#Cc1c(F)cccc1Nc1c(F)cccc1F` displayed a melting point of 145 to 146 °C. In the case of `CCCOc1nc(N)c2ncn(C3CCCCO3)c2n1` (stereo not drawn) it was 138 to 140 °C.

As for `CCCn1c(COCC)nc2c(N)nc3ccc(OCCCCCCNS(C)(=O)=O)cc3c21`, the melting point fell in the range of 164 to 167 °C. To `CCc1nc(=O)[nH]c2sccc12` belongs 217 to 220 °C; to `Cc1ccc(OCC2CN=C(N)O2)c(C)c1` (stereo not drawn), 116 °C; to `O=C(O)CCC1CC(O)C(=O)N1` (stereo not drawn), 129 to 132 °C. Consider `CCOc1cc(C2=NN(C3CCCC3)C(=O)[C@H]3CC=CC[C@@H]23)ccc1OC` (relative stereo), for which the melting point fell in the range of 124 to 127 °C. In the case of `O=C(NCC1Cc2ccc3c(c2O1)CCCC3)OCc1ccccc1` (stereo not drawn) it was 88 to 90 °C; in that of `CCN(CCC(=O)O)C(=S)Nc1c(C)cccc1C`, 115 to 118 °C. To `CCCCOc1ccc(S(=O)(=O)C2(C(=O)NO)CCN(Cc3ccc(OC)cc3)CC2)cc1` belongs 173 °C; to `CNC(Cc1ccc(Cl)nc1)=C(N)C(=O)C(F)(F)F`, 114 °C. In the case of `COC(=Cc1ccc(-c2cccc(N(C)C(=O)Nc3ccccc3)c2)cc1)C(=O)O` it was 223 °C; in that of `CCCCCCCCCCCCOc1cc(CC#N)c(SC)cc1CC#N`, 100 to 102 °C; in that of `O=C1C2CCCN2c2ncccc2N1Cc1ccncc1` (stereo not drawn), 262 to 265 °C.

In turn, `CC(C)[C@H](CC1C(=O)OC(C)(C)OC1=O)NC(=O)OC(C)(C)C` had a melting point of 108 to 112 °C. Compound `O=C(CC(=O)C(F)(F)F)Nc1cc(-c2ccncc2)n[nH]1` displayed a melting point of 364 to 366 °C.

As to `CCOC(=O)C1(C(=O)N(Cc2ccccc2)Cc2ccccc2)CC(=O)N(C(C)c2ccccc2)C1` (stereo not drawn), the melting point was in the range of 135 to 137 °C. Compound `CSCc1nn(CCC#N)c(O)c1C` registered a melting point of 98 °C.

In turn, `CCCCCCCCCCCCCCC(=O)C(=O)N[C@@H](CCCC)C(=O)NCC(=O)OC` returned a melting point of 65 to 67 °C. Turning to `O=[N+]([O-])c1ccc(NS(=O)(=O)c2ccccc2)c(Cl)c1`, the melting point lay within 155 to 157 °C.

Turning to `CC(=O)c1c[nH]c2nccc(OCC3CCCCC3)c12`, the melting point is > 210 °C.

`COc1ccc(N2CCN(c3c(C)c(C)c4c(c3C)C(N3CCCCCC3)C(C)(C)O4)CC2)cc1` (stereo not drawn) returned a melting point of 127 to 128 °C. To `Cn1cncc1C(O)(c1ccc(Cl)cc1)c1ccc2c(c1)c(-c1cccc(Cl)c1)cc(=O)n2C` (stereo not drawn) belongs 234 °C. Compound `CC(C)n1c(CO)c(-c2ccc(F)cc2)c(-c2ccccc2)c1C(N)=O` displayed a melting point of 189 to 190 °C. In the case of `NC(=NO)c1c(F)cccc1C(F)(F)F` it was 155 to 157 °C; in that of `C=CCOC(=O)C1=C(C)NC(C)=C(C(=O)OCC=C)C1c1ccccc1Cl`, 98 to 99 °C; in that of `O=C(Nc1nccs1)C1=C(O)c2ccsc2S(=O)(=O)C1`, 215 to 216 °C.

With `O=C(O)C=Cc1cccc2cc[nH]c12`, the melting point lay within 179 to 181 °C. In the case of `O[C@H]1CN(Cc2ccccc2)CC[C@@H]1c1ccc(Br)cc1` (racemic) it was 125 to 129 °C. In the case of `CC1(O)CC(C)(C)N(N=Cc2ccccc2)C(C)(C)C1` it was 84 °C; in that of `COC(=O)COCc1cc(Br)ccc1C(=O)OC`, 60 to 62 °C; in that of `Nc1c(S(=O)(=O)c2ccc(O)cc2)c2nccnc2n2ccnc12`, > 300 °C. To `CC(=O)Nc1cc(Cl)c(Cl)cc1NC(=O)Nc1cc(C(F)(F)F)ccc1Cl` belongs 262 to 264 °C. In the case of `O=C(c1ccc(F)cc1)N1CCC[C@H](c2nc(-c3ccc4ccccc4c3)no2)C1`, the melting point lay in the range of 142 to 143 °C. To `NC1=NCC(NC=O)(N[C@@H]2CC=C(CO)C2)C(Cl)=N1` (stereo partly drawn) belongs 148 to 150 °C. `Cc1ccc(-c2nc(COc3ccc(CCCCn4ccnc4)cc3)cs2)s1` yielded a melting point of 81 to 82 °C.

`C#CCOc1ccc2c(C)cc(=O)oc2c1C(=O)C=Cc1cc(OC)c(OC)c(OC)c1`: the melting point lay in the range of 191 to 193 °C. In the case of `Cc1cc(-c2ccccc2)n2nc(Cl)nc2n1` it was 179 to 181 °C.

With `CNC(=O)N(O)Cc1cccc(Nc2ccccc2C(=O)OC)c1Cl`, the melting point was in the range of 143 to 145 °C. To `CC(C)(C)OC(=O)N1CCN(c2ccc(Nc3nc(N)c(C(=O)c4c(Cl)cccc4Cl)s3)cc2)CC1` belongs 165 to 167 °C; to `Cc1cccc(-c2[nH]c(C(C)C)nc2-c2cccc(-c3ccc(NC(=O)NN4CCOCC4)cc3)c2)n1`, 146 to 148 °C. To `CC(=O)NC[C@H]1CN(c2cc(F)c(C3CCNCC3)c(F)c2)C(=O)O1` belongs 125 to 126 °C. In the case of `C=C(Cn1ccnc1)c1cc(F)ccc1OCc1c(Cl)cccc1Cl` it was 106 to 108 °C. On to `CCOC(=O)c1[nH]c2cc(Cl)cc(Cl)c2c1N(CC(=O)c1ccccc1)Cc1ccccc1`, for which the melting point fell in the range of 174 to 175 °C.
